Laboratory results from ChEMBL document CHEMBL5335851, “Total Synthesis, Structure Reassignment, and Biological Evaluation of the Anti-Inflammatory Macrolactone 13-Hydroxy-14-deoxyoxacyclododecindione” (J Nat Prod, 2024).

What was measured:
[1] = molecular target: T1, Signal transducer and activator of transcription 6 (Homo sapiens, UniProt P42226); assay: Inhibition of IL-4 induced STAT6 signaling in human HepG2 cells harboring pRL-EF1alpha, pGL3-TK-7xN4 and TOPO-Stat6 plasmid assessed as luciferase activity incubated for 24 hrs; assay type: cell-based
T1 sequence (P42226 whole entry): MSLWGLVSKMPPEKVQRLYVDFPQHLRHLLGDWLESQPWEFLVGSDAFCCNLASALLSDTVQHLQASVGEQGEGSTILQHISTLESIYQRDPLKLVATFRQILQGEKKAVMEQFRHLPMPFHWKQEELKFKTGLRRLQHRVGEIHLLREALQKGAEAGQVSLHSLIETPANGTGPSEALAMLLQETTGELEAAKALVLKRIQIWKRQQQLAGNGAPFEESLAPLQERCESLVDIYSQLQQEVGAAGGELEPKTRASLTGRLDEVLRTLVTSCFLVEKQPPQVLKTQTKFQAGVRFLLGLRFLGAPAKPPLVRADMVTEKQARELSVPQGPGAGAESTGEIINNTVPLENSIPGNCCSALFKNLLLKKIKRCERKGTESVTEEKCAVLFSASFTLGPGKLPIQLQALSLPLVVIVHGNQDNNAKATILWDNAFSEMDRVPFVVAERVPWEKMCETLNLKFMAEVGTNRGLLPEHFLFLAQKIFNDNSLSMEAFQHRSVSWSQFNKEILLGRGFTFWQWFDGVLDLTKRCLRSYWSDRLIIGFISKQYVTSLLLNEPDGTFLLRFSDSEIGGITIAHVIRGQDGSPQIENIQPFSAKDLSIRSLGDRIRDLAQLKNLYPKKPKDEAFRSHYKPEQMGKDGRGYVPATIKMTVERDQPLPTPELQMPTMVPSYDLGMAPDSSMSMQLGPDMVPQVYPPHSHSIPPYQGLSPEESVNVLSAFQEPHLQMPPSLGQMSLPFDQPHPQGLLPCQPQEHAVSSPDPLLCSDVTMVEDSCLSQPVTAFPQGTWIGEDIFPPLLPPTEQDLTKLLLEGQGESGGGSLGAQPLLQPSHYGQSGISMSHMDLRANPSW

[2] = molecular target: Mothers against decapentaplegic homolog 2/homolog 3 (Homo sapiens, UniProt P84022+Q15796); assay: Inhibition of TGF-beta induced Smad2/3 signaling in human HepG2 cells harboring pRL-EF1alpha, (CAGA)9x-MLP-Luc plasmid assessed as luciferase activity incubated for 24 hrs; assay type: cell-based

| SMILES | IC50 [1] [nM] | IC50 [2] [nM] |
| --- | --- | --- |
| C/C1=C\CCC(C)(O)C(C)OC(=O)Cc2c(Cl)c(O)cc(O)c2C1=O (centres undefined) | 68 | – |
| C/C1=C\C[C@@H](O)[C@H](C)[C@@H](C)OC(=O)Cc2c(Cl)c(O)cc(O)c2C1=O | 56 | – |
| C/C1=C\CCC(C)(C)C(C)OC(=O)Cc2c(Cl)c(O)cc(O)c2C1=O (centres undefined) | 79 | – |
| C/C1=C\CC[C@H](C)[C@@H](C)OC(=O)Cc2c(Cl)c(O)cc(O)c2C1=O | 20 | – |
| C/C1=C\C[C@@H](O)[C@H](C)[C@H](C)OC(=O)Cc2c(Cl)c(O)cc(O)c2C1=O | – | 240 |
| C/C1=C/C[C@@H](O)[C@H](C)[C@@H](C)OC(=O)Cc2c(Cl)c(O)cc(O)c2C1=O | – | 100 |
| C/C1=C\C[C@H](O)[C@H](C)[C@@H](C)OC(=O)Cc2c(Cl)c(O)cc(O)c2C1=O | – | 68 |
| C/C1=C\C[C@H](O)[C@H](C)[C@H](C)OC(=O)Cc2c(Cl)c(O)cc(O)c2C1=O | – | 140 |
| C/C1=C/C[C@H](O)[C@H](C)[C@@H](C)OC(=O)Cc2c(Cl)c(O)cc(O)c2C1=O | – | 68 |
